Like-named read-outs stand apart in the source and are kept apart here.
Tests used:
[1] = molecular target: Sclerotinia sclerotiorum glucose dehydrogenase (FAD-GDH) Ssc-n1 variant N191E, SEQ ID NO: 1 (Sclerotinia sclerotiorum, UniProt A7F9L2, N191E); settings: 60 ml culture, crude enzyme; glucose 1-40 mM, pH 6.5, DCIP/PMS
Procedure: (§1) The transformant BL21 (DE3) expressing each mutated enzyme was precultured. The transformant was inoculated in an amount of 1% with respect to 60 ml of a medium A using a 300-ml baffled flask and shake-cultured under conditions involving 20° C., 28 hours, and 125 rpm. After collection of 50 ml of the medium, the bacterial cells were suspended by the addition of BugBuster (registered trademark) protein extraction reagent (Novagen/Merck KGaA) at a ratio of 5 ml per g of wet cells and incubated at room temperature for 15 minutes with gentle shaking. Insoluble fractions were removed by centrifugation (15 Krpm, 4° C., 20 minutes). Then, the obtained supernatant was dialyzed overnight at 4° C. against a 20 mM potassium phosphate buffer solution (pH 6.5). After the completion of the dialysis, the dialysate was centrifuged, and the supernatant was used as a crude enzyme preparation. Insoluble fractions were suspended in a 20 mM potassium phosphate buffer solution (pH 6.5) at a ratio of 1 ml per 2 ml of the suspension containing the insoluble fractions.
(§2) The GDH activity was measured in a DCIP (0.3 mM)/PMS (0.6 mM) system using a 20 mM potassium phosphate buffer solution (pH 6.5) as a buffer solution and glucose (Glc; 1, 2, 4, 10, 20, and 40 mM) and xylose (Xyl; 4 and 40 mM) as substrates.
(§3) The numeric values in the tables represent a mean of several data about specific activity (U/mg) and productivity (U/L) obtained under the same conditions with 40 mM glucose as a substrate. The obtained crude enzyme preparation was used to observe the correlation between the concentration of the substrate (glucose; 1, 2, 4, 10, 20, and 40 mM) and the activity. The obtained Michaelis-Menten constant (Km value) and apparent maximum activity (Vmax) were determined from a saturation curve determined therefrom.

[2] = molecular target: Sclerotinia sclerotiorum glucose dehydrogenase (FAD-GDH) Ssc-n1 variant N191K/S529G, SEQ ID NO: 1 (Sclerotinia sclerotiorum, UniProt A7F9L2, N191K/S529G); settings: 60 ml culture, crude enzyme; glucose 1-40 mM, pH 6.5, DCIP/PMS
Procedure: as §1, §2, §3

[3] = molecular target: Sclerotinia sclerotiorum glucose dehydrogenase (FAD-GDH) Ssc-n1 variant N191R, SEQ ID NO: 1 (Sclerotinia sclerotiorum, UniProt A7F9L2, N191R); settings: 60 ml culture, crude enzyme; glucose 1-40 mM, pH 6.5, DCIP/PMS
Procedure: as §1, §2, §3

[4] = molecular target: Sclerotinia sclerotiorum glucose dehydrogenase (FAD-GDH) Ssc-n2 variant N191R/S529G, SEQ ID NO: 1 (Sclerotinia sclerotiorum, UniProt A7F9L2, N191R/S529G); settings: 60 ml culture, crude enzyme; glucose 1-40 mM, pH 6.5, DCIP/PMS
Procedure: as §1, §2, §3

[5] = molecular target: Sclerotinia sclerotiorum glucose dehydrogenase (FAD-GDH) Ssc-n2 variant N191K/S529G, SEQ ID NO: 1 (Sclerotinia sclerotiorum, UniProt A7F9L2, N191K/S529G); settings: crude enzyme, glucose 1-40 mM, pH 6.5, DCIP/PMS
Procedure: as §1
(§4) A small-scale expression system was used for some multiple-mutated enzymes. The transformant BL21 (DE3) expressing each mutated enzyme was precultured, and the transformant was inoculated in an amount of 1 vol % with respect to 3 ml of a medium A. The bacterial cells were shake-cultured at 37° C. for 4 hours and then shake-cultured at 20° C. for 20 hours. After the culture, 2 ml of the medium was collected, then suspended by the addition of 400 μl of BugBuster (registered trademark), and then shaken at room temperature for 15 minutes. Then, the suspension was centrifuged (15000 rpm, 4° C., 20 minutes), and the obtained supernatant was used as a crude enzyme preparation.
as §2, §3

[6] = molecular target: Sclerotinia sclerotiorum glucose dehydrogenase (FAD-GDH) Ssc-n2 variant N191K/S529G/G69A, SEQ ID NO: 1 (Sclerotinia sclerotiorum, UniProt A7F9L2, G69A/N191K/S529G); settings: crude enzyme, glucose 1-40 mM, pH 6.5, DCIP/PMS
Procedure: as §1, §4, §2, §3

[7] = molecular target: Sclerotinia sclerotiorum glucose dehydrogenase (FAD-GDH) Ssc-n2 variant N191K/S529G/G69H, SEQ ID NO: 1 (Sclerotinia sclerotiorum, UniProt A7F9L2, G69H/N191K/S529G); settings: crude enzyme, glucose 1-40 mM, pH 6.5, DCIP/PMS
Procedure: as §1, §4, §2, §3

[8] = molecular target: Sclerotinia sclerotiorum glucose dehydrogenase (FAD-GDH) Ssc-n2 variant N191K/S529G/G69N, SEQ ID NO: 1 (Sclerotinia sclerotiorum, UniProt A7F9L2, G69N/N191K/S529G); settings: crude enzyme, glucose 1-40 mM, pH 6.5, DCIP/PMS
Procedure: as §1, §4, §2, §3

[9] = molecular target: Sclerotinia sclerotiorum glucose dehydrogenase (FAD-GDH) Ssc-n2 variant N191K/S529G/Y70F, SEQ ID NO: 1 (Sclerotinia sclerotiorum, UniProt A7F9L2, N191K/S529G/Y70F); settings: crude enzyme, glucose 1-40 mM, pH 6.5, DCIP/PMS
Procedure: as §1, §4, §2, §3

[10] = molecular target: T1, Aspergillus niger glucose dehydrogenase (FAD-GDH) Ang-n2, SEQ ID NO: 2 (26 N-terminal residues deleted, Met-Thr-Asp-Ser-Thr-Leu-Asn added) (Aspergillus niger, UniProt A2QWL1); test: GDH activity vs glucose, saturation curve (Ang-n2); assay type: biochemical; settings: crude enzyme, glucose 1-40 mM, pH 6.5, DCIP/PMS
T1 construct: pET30c, E. coli BL21(DE3), crude extract or purified (T9)
T1 sequence (A2QWL1 27-588): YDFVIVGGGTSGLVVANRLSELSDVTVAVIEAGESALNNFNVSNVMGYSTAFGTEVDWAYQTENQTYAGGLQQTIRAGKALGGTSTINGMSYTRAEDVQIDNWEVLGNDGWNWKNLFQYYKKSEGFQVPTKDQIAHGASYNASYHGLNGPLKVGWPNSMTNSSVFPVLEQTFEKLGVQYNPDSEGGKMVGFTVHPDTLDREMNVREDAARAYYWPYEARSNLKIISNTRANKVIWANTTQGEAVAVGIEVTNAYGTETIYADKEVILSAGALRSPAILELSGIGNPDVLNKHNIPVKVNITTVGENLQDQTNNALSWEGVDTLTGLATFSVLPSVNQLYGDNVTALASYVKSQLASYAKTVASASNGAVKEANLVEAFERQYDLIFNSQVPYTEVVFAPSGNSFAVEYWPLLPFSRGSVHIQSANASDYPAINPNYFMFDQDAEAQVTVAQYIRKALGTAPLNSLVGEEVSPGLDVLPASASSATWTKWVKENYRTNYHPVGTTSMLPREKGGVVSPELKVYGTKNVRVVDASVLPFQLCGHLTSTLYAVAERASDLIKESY
Procedure: as §1, with “After the completion of the dialysis, the dialysate was centrifuged, and the supernatant was used as a crude enzyme preparation. Insoluble fractions were suspended in a 20 mM potassium phosphate buffer solution (pH 6.5) at a ratio of 1 ml per 2 ml of the suspension containing the insoluble fractions.” left out
as §2
as §3, with “The obtained crude enzyme preparation was used to observe the correlation between the concentration of the substrate (glucose; 1, 2, 4, 10, 20, and 40 mM) and the activity.” left out

## OC[C@H]1OC(O)[C@H](O)[C@@H](O)[C@@H]1O (stereo partly shown) [glucose]
[1]
  Vmax: 5.6 U/mg protein
[2]
  Vmax: 7.2 U/mg protein
[3]
  Vmax: 5.6 U/mg protein
[4]
  Vmax: 15.7 U/mg protein
[5]; 3 ml culture
  Vmax: 16.9 U/mg protein
[5]; 60 ml culture
  Vmax: 38.2 U/mg protein
[6]; 3 ml culture
  Vmax: 15.8 U/mg protein
[6]; 60 ml culture
  Vmax: 26.4 U/mg protein
[7]; 3 ml culture
  Vmax: 11.1 U/mg protein
[7]; 60 ml culture
  Vmax: 6.9 U/mg protein
[8]; 3 ml culture
  Vmax: 11.5 U/mg protein
[8]; 60 ml culture
  Vmax: 13.9 U/mg protein
[9]; 3 ml culture
  Vmax: 9.0 U/mg protein
[9]; 60 ml culture
  Vmax: 23.8 U/mg protein
[10]; 3 ml culture (Table 8)
  Vmax: 1.5 U/mg protein
[10]; 60 ml culture
  Vmax: 1.5 U/mg protein

Reference: patent publication US9512459B2 (priority 2011, dated 2016)
